# ChEMBL document CHEMBL1150375, “Novel inhibitors of the v-raf murine sarcoma viral oncogene homologue B1 (BRAF) based on a 2,6-disubstituted pyrazine scaffold” (J Med Chem, 2008)
# Target: RAF proto-oncogene serine/threonine-protein kinase (Homo sapiens, UniProt P04049)
# Assay: Inhibition of CRAF
# RAF proto-oncogene serine/threonine-protein kinase, sequence (P04049 whole entry): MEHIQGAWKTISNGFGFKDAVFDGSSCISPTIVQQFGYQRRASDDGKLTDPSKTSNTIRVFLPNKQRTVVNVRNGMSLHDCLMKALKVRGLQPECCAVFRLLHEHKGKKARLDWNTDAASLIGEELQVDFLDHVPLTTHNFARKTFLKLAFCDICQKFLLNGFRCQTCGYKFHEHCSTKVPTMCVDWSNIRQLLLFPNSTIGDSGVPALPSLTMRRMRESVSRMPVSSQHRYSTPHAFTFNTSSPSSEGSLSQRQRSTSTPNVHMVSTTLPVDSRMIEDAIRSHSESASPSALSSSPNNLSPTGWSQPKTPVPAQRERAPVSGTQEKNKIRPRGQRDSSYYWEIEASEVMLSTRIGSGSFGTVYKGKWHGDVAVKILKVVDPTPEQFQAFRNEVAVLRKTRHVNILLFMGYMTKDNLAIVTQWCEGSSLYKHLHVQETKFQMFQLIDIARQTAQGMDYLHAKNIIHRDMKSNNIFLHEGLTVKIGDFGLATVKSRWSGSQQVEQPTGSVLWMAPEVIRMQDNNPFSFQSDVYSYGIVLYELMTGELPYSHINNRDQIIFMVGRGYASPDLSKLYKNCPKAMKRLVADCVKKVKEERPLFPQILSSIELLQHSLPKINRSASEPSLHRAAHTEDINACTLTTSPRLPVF
row,IC50 [µM],Compound
1,6.96,CC(=O)Nc1cccc2c(Oc3cncc(Nc4cccc(-c5cnco5)c4)n3)cccc12
2,20.3,COc1cc(Nc2cncc(Oc3ccc(NC(C)=O)c4ccccc34)n2)cc(OC)c1OC
3,38.2,COc1cc(Nc2cncc(-c3ccc(C(N)=O)cc3)n2)cc(OC)c1OC
4,> 100,COc1cc(Nc2cncc(-c3ccc(NC(=O)Nc4ccccc4)cc3)n2)cc(OC)c1OC
5,1.52,CC(=O)Nc1ccc(Oc2cncc(Nc3cccc(-c4cnco4)c3)n2)c2ccccc12

# Tested on: not listed separately
# Assay: Selectivity ratio of IC50 for CRAF to IC50 for human BRAF V600E mutant
row,Ratio IC50,Compound
1,11,CC(=O)Nc1cccc2c(Oc3cncc(Nc4cccc(-c5cnco5)c4)n3)cccc12
2,36,COc1cc(Nc2cncc(Oc3ccc(NC(C)=O)c4ccccc34)n2)cc(OC)c1OC
3,34,COc1cc(Nc2cncc(-c3ccc(C(N)=O)cc3)n2)cc(OC)c1OC
4,> 86,COc1cc(Nc2cncc(-c3ccc(NC(=O)Nc4ccccc4)cc3)n2)cc(OC)c1OC
5,5,CC(=O)Nc1ccc(Oc2cncc(Nc3cccc(-c4cnco4)c3)n2)c2ccccc12

# Target: Serine/threonine-protein kinase B-raf (Homo sapiens, UniProt P15056, V600E)
# Sequence (P15056 2-766 V600E limits assumed): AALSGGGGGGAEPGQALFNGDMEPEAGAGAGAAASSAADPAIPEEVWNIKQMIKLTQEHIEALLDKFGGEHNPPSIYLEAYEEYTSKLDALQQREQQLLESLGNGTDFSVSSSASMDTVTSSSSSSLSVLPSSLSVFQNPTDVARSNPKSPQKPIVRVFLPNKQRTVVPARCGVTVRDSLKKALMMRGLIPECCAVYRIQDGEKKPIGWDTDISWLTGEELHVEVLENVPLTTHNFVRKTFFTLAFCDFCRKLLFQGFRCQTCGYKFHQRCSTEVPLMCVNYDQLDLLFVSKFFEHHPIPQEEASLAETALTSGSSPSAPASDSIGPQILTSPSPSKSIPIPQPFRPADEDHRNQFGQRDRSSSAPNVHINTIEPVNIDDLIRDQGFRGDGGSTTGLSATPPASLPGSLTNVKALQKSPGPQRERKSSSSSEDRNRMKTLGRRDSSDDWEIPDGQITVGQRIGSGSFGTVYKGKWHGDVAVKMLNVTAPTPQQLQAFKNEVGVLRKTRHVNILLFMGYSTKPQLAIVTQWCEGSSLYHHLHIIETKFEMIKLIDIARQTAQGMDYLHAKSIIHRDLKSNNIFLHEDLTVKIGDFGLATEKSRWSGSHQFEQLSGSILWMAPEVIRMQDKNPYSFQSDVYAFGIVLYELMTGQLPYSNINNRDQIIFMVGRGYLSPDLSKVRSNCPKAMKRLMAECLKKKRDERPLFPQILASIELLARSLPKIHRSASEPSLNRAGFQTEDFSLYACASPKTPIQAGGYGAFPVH
# Description: Inhibition of human BRAF V600E mutant expressed in SF9 cells
row,IC50 [µM],Compound
1,16,COc1cc(Nc2cncc(Nc3ccc(NC(C)=O)cc3)n2)cc(OC)c1OC
2,0.65,CC(=O)Nc1cccc2c(Oc3cncc(Nc4cccc(-c5cnco5)c4)n3)cccc12
3,> 100,COc1cc(Nc2cncc(Oc3ccc4ccccc4c3)n2)cc(OC)c1OC
4,18,COc1cc(Nc2cncc(Oc3cccc4c3CCC4=O)n2)cc(OC)c1OC
5,86,COc1cc(Nc2cncc(Oc3ccc4c(c3)/C(=N/O)CC4)n2)cc(OC)c1OC
6,5.5,COc1cc(Nc2cncc(Oc3ccc(NC(C)=O)cc3)n2)cc(OC)c1OC
7,26,COc1cc(Nc2cncc(Oc3ccc(/C(C)=N/O)cc3)n2)cc(OC)c1OC
8,36,COc1cc(Nc2cncc(Oc3cccc(Cl)c3)n2)cc(OC)c1OC
9,1.5,COc1cc(Nc2cncc(Oc3ccnc4ccccc34)n2)cc(OC)c1OC
10,26,COc1cc(Nc2cncc(-c3cccc(NC(C)=O)c3)c2)cc(OC)c1OC
11,12,COc1cc(Nc2cncc(Nc3cccc(F)c3)n2)cc(OC)c1OC
12,18,COc1cc(Nc2cncc(Oc3cccc4c3CCCC4)n2)cc(OC)c1OC
13,14,COc1cc(Nc2cncc(Nc3cccc(NC(C)=O)c3)n2)cc(OC)c1OC
14,26,COc1cc(Nc2cncc(-c3ccc(CO)cc3)n2)cc(OC)c1OC
15,3.5,COc1cc(Nc2cncc(-c3cccc(NC(C)=O)c3)n2)cc(OC)c1OC
16,9.8,COc1cc(Nc2cncc(-c3cccc(C#N)c3)n2)cc(OC)c1OC
17,2.9,COc1cc(Nc2cncc(-c3ccncc3)n2)cc(OC)c1OC
18,9.8,COc1cc(Nc2cncc(Sc3cccc4ccccc34)n2)cc(OC)c1OC
19,44,COc1cc(Nc2cncc(Oc3ccc4c(c3)OC(=O)CC4)n2)cc(OC)c1OC

row,IC50 [µM],Compound
1,10,COc1cc(Nc2cncc(Oc3ccccc3-c3ccccc3)n2)cc(OC)c1OC
2,18,COc1cc(Nc2cncc(-c3ccc(O)cc3)n2)cc(OC)c1OC
3,11,COc1cc(Nc2cncc(Oc3cccc(/C(C)=N/O)c3)n2)cc(OC)c1OC
4,19,COc1cc(Nc2cncc(Oc3cccc(C(C)=O)c3)n2)cc(OC)c1OC
5,3,COc1cc(Nc2cncc(-c3ccc(C=O)cc3)n2)cc(OC)c1OC
6,> 100,COc1cc(Nc2nc(-c3cccc(NC(C)=O)c3)cnc2NC(C)=O)cc(OC)c1OC
7,0.56,COc1cc(Nc2cncc(Oc3ccc(NC(C)=O)c4ccccc34)n2)cc(OC)c1OC
8,14,CCOC(=O)c1cccc(-c2cncc(Nc3cc(OC)c(OC)c(OC)c3)n2)c1
9,76,COc1cc(Nc2cncc(Oc3ccc4c(c3)CCCC4=O)n2)cc(OC)c1OC
10,2.5,CC(=O)Nc1cccc2c(Oc3cncc(Nc4ccc5c(c4)C(=O)OC5)n3)cccc12
11,1.12,COc1cc(Nc2cncc(-c3ccc(C(N)=O)cc3)n2)cc(OC)c1OC
12,22,COc1cc(Nc2cncc(-c3cccnc3)n2)cc(OC)c1OC
13,45,COc1cc(Nc2cncc(Oc3cccnc3)n2)cc(OC)c1OC
14,1.16,COc1cc(Nc2cncc(-c3ccc(NC(=O)Nc4ccccc4)cc3)n2)cc(OC)c1OC
15,22,COc1cc(Nc2cncc(Oc3ccc4c(c3)C(=O)CC4)n2)cc(OC)c1OC
16,1.2,COc1cc(Nc2cncc(Oc3cccc4ccccc34)n2)cc(OC)c1OC
17,70,COc1cc(Nc2cncc(Oc3ccc4c(c3)CCC4=O)n2)cc(OC)c1OC
18,31,COc1cc(Nc2cncc(Oc3ccccc3)n2)cc(OC)c1OC
19,10,COc1cc(Nc2cncc(Oc3cccc4ncccc34)n2)cc(OC)c1OC

row,IC50 [µM],Compound
1,3.8,COc1cc(Nc2cncc(Oc3cccc4cnccc34)n2)cc(OC)c1OC
2,92,COc1cc(Nc2cncc(Oc3ccc4c(c3)CCC/C4=N\O)n2)cc(OC)c1OC
3,19,COc1cc(Nc2cncc(Nc3ccc(F)cc3)n2)cc(OC)c1OC
4,16,COc1cc(Nc2cncc(Nc3ccccc3)n2)cc(OC)c1OC
5,13,COc1cc(Nc2cncc(Oc3cccc(NC(C)=O)c3)n2)cc(OC)c1OC
6,7.4,COc1cc(Nc2cncc(Oc3cccc4[nH]ccc34)n2)cc(OC)c1OC
7,29,COc1cc(Nc2cncc(Oc3cccc4c3CCCC4=O)n2)cc(OC)c1OC
8,4.9,COc1cc(Nc2cncc(Nc3ccc(O)cc3)n2)cc(OC)c1OC
9,4,COc1cc(Nc2cncc(-c3cccc(O)c3)n2)cc(OC)c1OC
10,4.7,COc1cc(Nc2cncc(Nc3ccncc3)n2)cc(OC)c1OC
11,1.4,COc1cc(Nc2cncc(Oc3cccc4c3CC/C4=N\O)n2)cc(OC)c1OC
12,0.41,COc1cc(Nc2cncc(Oc3cccc4c(NC(C)=O)cccc34)n2)cc(OC)c1OC
13,16,COc1cc(Nc2cncc(Oc3ccncc3)n2)cc(OC)c1OC
14,34,COc1cc(Nc2cncc(Oc3ccc(C(C)=O)cc3)n2)cc(OC)c1OC
15,29,COc1cc(Nc2cncc(Oc3ccc4ncccc4c3)n2)cc(OC)c1OC
16,56,COc1cc(Nc2cncc(Oc3cccc(F)c3)n2)cc(OC)c1OC
17,0.31,CC(=O)Nc1ccc(Oc2cncc(Nc3cccc(-c4cnco4)c3)n2)c2ccccc12
18,45,COc1cc(Nc2cncc(Oc3ccccc3F)n2)cc(OC)c1OC
